# Legend:
# [1] = test system: basal cell carcinoma (BCC); test: Phase I dose escalation trial, adult BCC patients with PTCH or SMO mutations: clinical response; type: in vivo, human
# Description: In addition to the Hedgehog-activated medulloblastoma, basal cell carcinoma (BCC) is another cancer type that is mostly driven by mutations or genetic lesions of the Hedgehog pathway genes that lead to constitutive activation of the Hedgehog pathway. […] In an ongoing phase I, dose escalation trial of methyl-4′-trifluoromethoxy-biphenyl-3-carboxylic acid [6-(cis-2,6-dimethyl-morpholin-4-yl)-pyridin-3-yl]-amide, an Hedgehog signaling inhibitor antagonizing SMO, adult BCC patients were enrolled among patients with other solid tumors. Mutational analysis of PTCH1 and SMO by directly sequencing was performed to the archival tumor specimens collected at the time of diagnosis from the enrolled BCC patients. […] The method of the invention was used to determine the Hedgehog activation status of BCC tumors from these patients. With both the 5-gene and 8-gene models, the probability score of all 6 cases were above the pre-specified cut-off and therefore all were called Hedgehog-activated. Among these 6 patients, 2 achieved confirmed partial response on methyl-4′-trifluoromethoxy-biphenyl-3-carboxylic acid [6-(cis-2,6-dimethyl-morpholin-4-yl)-pyridin-3-yl]-amide treatment, 2 had stable disease for more than 6 month, and the other 2 patients discontinued methyl-4′-trifluoromethoxy-biphenyl-3-carboxylic acid [6-(cis-2,6-dimethyl-morpholin-4-yl)-pyridin-3-yl]-amide due to adverse events after less than 2 months of therapy which might be too brief to observe any clinical activities. […] The method of the invention can be used for identifying other types of tumor with the same underlining Hedgehog-mutation driven etiology that might preferentially benefit from a Hedgehog signaling inhibitor therapy.
# medulloblastoma = test: Phase I dose escalation trial, adult medulloblastoma patients: clinical response; type: in vivo, human
# Description: Adult cancer patients including patients with medulloblastoma, were enrolled into an ongoing phase I, dose escalation trial of methyl-4′-trifluoromethoxy-biphenyl-3-carboxylic acid [6-(cis-2,6-dimethyl-morpholin-4-yl)-pyridin-3-yl]-amide to evaluate safety and tolerability of methyl-4′-trifluoromethoxy-biphenyl-3-carboxylic acid [6-(cis-2,6-dimethyl-morpholin-4-yl)-pyridin-3-yl]-amide and assess maximally tolerated dose of methyl-4′-trifluoromethoxy-biphenyl-3-carboxylic acid [6-(cis-2,6-dimethyl-morpholin-4-yl)-pyridin-3-yl]-amide for adult patients. Archival FFPE tumor specimens collected prior to the start of the trial are available for analysis by the method of the invention from 3 enrolled medulloblastoma patients in this trial.
# Based on the 8-gene and 5-gene predictive model, the method of the invention was used to determine the Hedgehog activation status in tumor for these 3 patients. The two responders were determined to have Hedgehog-activated tumor while the tumor from the non-responder was called non-Hedgehog-activated. In addition, the single genes, SPHK1, OTX2, SFRP1, PDLIM3, or SHROOM2 were each used to determine the Hedgehog activation status based on the pre-established cut-off for each of the genes. By each of the single gene, the same Hedgehog-activated and non-Hedgehog-activated calls were made to the two responders and one non-responder, respectively. Among the 3 patients, only one patient had adequate tumor tissue samples available for additional mutational analysis of the PTCH1 and SMO gene. […] Inactivating PTCH1 mutations have been identified as a major mechanism of constitutively activating Hedgehog pathway in medulloblastoma. Therefore, identification of this PTCH1 mutation provides a mechanistic basis for Hedgehog pathway activation and observed clinical activity against Hedgehog signaling inhibitor in this patient and further validates the finding by the method of the invention.
# [2] = medulloblastoma patient 1, daily dose of 200 mg
compound,measurement,setting,value
"Cc1c(C(=O)Nc2ccc(N3C[C@@H](C)O[C@@H](C)C3)nc2)cccc1-c1ccc(OC(F)(F)F)cc1 [methyl-4′-trifluoromethoxy-biphenyl-3-carboxylic acid [6-(cis-2,6-dimethyl-morpholin-4-yl)-pyridin-3-yl]-amide]",number of patients with stable disease for more than 6 month,[1]; of 6 BCC patients with PTCH or SMO mutations,2 patients
same,number of patients with confirmed partial response,"[1]; of 6 BCC patients with PTCH or SMO mutations, all called Hedgehog-activated",2 patients
same,number of patients who discontinued due to adverse events,"[1]; of 6 BCC patients, after less than 2 months of therapy",2 patients
same,time of treatment until progression,"medulloblastoma; 3rd medulloblastoma patient, daily dose of 200 mg",52 days
same,clinical outcome,"medulloblastoma; 3rd medulloblastoma patient, daily dose of 200 mg, non-Hedgehog-activated tumor",progressed rapidly
same,duration of response before disease progression,medulloblastoma; [2],4 months
same,time of treatment until partial response,medulloblastoma; [2],2 months
same,tumor response by the RECIST criteria,"medulloblastoma; medulloblastoma patient 1, daily dose of 200 mg, Hedgehog-activated tumor",partial response (PR)
same,response measured by positron emission tomography (PET),"medulloblastoma; metastatic medulloblastoma patient without measurable lesion, 1500 mg daily dose, Hedgehog-activated tumor, PTCH1 mutation",metabolic partial response
same,duration of metabolic partial response before disease relapse,"medulloblastoma; metastatic medulloblastoma patient, 1500 mg daily dose",7 months

# Source: US20140094461A1, “BIOMARKERS FOR HEDGEHOG INHIBITOR THERAPY” (priority 2011, published 2014)
